Data reported in patent publication US20250026769A1, “PAPD5 INHIBITORS AND METHODS OF USE THEREOF” (The Children's Medical Center Corporation, priority 2021, published 2025).
Like-named read-outs stand apart in the source and are kept apart here.

What was measured:
[1] = target: T1, rPAPD5 (Homo sapiens, UniProt Q8NDF8); assay: differential scanning fluorimetry (DSF) binding and stabilization of rPAPD5; settings: for ΔTm at 100 µM: 100 μM test compound, read-out: ΔTm at 100 μM; for ΔTm at 1 µM: 1 μM test compound (Table 2a), read-out: ΔTm at 1 μM
T1 construct: made in house
T1 sequence (Q8NDF8 68-698 isoform Q8NDF8-5 limits assumed): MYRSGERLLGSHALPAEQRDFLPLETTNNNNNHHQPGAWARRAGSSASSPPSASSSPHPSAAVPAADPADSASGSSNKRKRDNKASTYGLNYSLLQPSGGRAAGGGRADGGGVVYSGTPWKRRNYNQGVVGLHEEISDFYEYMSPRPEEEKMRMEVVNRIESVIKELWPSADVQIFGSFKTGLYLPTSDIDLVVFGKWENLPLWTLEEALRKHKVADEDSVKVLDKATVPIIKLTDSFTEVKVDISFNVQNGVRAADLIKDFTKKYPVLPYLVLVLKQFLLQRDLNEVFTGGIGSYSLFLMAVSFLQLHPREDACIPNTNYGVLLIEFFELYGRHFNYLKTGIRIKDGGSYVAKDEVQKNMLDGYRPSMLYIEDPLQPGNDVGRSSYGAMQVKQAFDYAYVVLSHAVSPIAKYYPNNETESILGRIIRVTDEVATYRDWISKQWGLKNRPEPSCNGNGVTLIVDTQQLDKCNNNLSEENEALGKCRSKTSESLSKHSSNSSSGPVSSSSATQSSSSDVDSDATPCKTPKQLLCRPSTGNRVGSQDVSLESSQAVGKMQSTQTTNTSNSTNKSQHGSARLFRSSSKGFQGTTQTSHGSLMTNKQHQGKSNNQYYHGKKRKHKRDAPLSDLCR
Summary of the method: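 Differential scanning fluorimetry was used to measure how test compounds bind and thermally stabilize rPAPD5. The reaction contained SYPRO orange dye diluted 1:5000 in […] of buffer with […], 25 mM Tris-HCl, 5 mM MgCl2 and 50 mM KCl. ΔTm was calculated relative to a DMSO control.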

[2] = tested on: hepatitis B surface antigen (HBSAg) from HepG2.2.15 cells, a hepatitis B virus-expressing cell line; assay: HBsAg ELISA in supernatant of HepG2.2.15 cells; type: cell-based; settings: HepG2.2.15, 96 h
Method: HepG2.2.15 cells, a hepatitis B virus-expressing cell line (Sells, M. A. et al., PNAS, 1987), were plated at 50,000 cells/well in DMEM/F12 media (Gibco) with 10% fetal bovine serum (Omega Scientific) in a 24-well or 96-well plate (Corning), in 2-3 replicates for each test compound/concentration plus controls, and incubated in a humidified 5% CO2 chamber at 37° C. The next day, media was aspirated, cells were washed once with phosphate buffered saline, pH7.4 (Gibco), and 1 mL DMEM/12 media was replaced. Test compounds were added in 3-fold dilutions from up to 100 μM down to 333 pM, with vehicle (dimethylsulfoxide (Sigma)) as a control. After four days of culture in a humidified 5% CO2 chamber at 37° C., plates were spun down in a centrifuge at 300 g for 10 minutes at room temperature. Supernatant from each well was collected and either frozen at −20° C. or used directly for quantitation of hepatitis B surface antigen (HBSAg) in an enzyme-linked immunosorbent assay (ELISA). The supernatant was tested using the HBSAg ELISA kit (Abnova Cat. No KA0286) per the manufacturer's instructions. Results of replicates were averaged and nonlinear curve fitting was used to determine the half maximal inhibitory concentration (IC50) for each test compound.

[3] = tested on: telomere length in DC patient iPSCs; assay: telomere length / telomere elongation in DC patient iPSCs; type: cell-based, human; settings: for concentration at which telomere elongation was observed: DC patient iPSCs, after 3-4 weeks of cell culture; for minimal effective concentration: Homo sapiens, iPSC, patient iPSCs, concentration class at which activity is seen, read-out: iPSC-based Telomere length
Method: (§1) Compound 266A had activity ˜2-logs higher in the in vitro RNA oligoadenylation assay compared to the parental compound cmpd. 1, approximating the activity of RG7834 (FIG. 7). […] 1. Compounds 295A and 296A had activity 2-3 logs higher in DC patient iPSCs, showing TERC maturation at 1 nM, similar to RG7834 (FIG. 6). […] Referring to Table 1D, “+” refers to activity at 1 μM, “++” refers to activity above 1 nM and below 1 μM, and “+++” refers to activity at <1 nM, “ND” refers to not determined.

[4] = tested on: TERC 3′ end processing in DC patient iPSCs; assay: TERC 3′ end processing by RACE in DC patient / PARN-mutant iPSCs; type: cell-based, human; settings: for minimal effective concentration: Homo sapiens, iPSC, patient iPSCs, concentration class at which activity is seen, read-out: iPSC-based RACE activity
Method: as §1

[5] = 10 μM test compound (Table 2a), read-out: ΔTm at 10 μM
[6] = 10 μM test compound, shift vs DMSO control, read-out: ΔTm (Table 2, starred: the compound was tested at 10 μM)

Row | ΔTm at 1 µM [1] [°C] | ΔTm at 10 µM [1, 5] [°C] | ΔTm at 10 µM [1, 6] [°C] | SMILES | ΔTm at 100 µM ([1]; shift vs DMSO control) [°C] | IC50 [2] [nM] | concentration at which telomere elongation was observed [3] [nM] | activity in DC patient iPSCs (TERC maturation) relative to cmpd. 1 ([4]; DC patient iPSCs, higher / more potent than cmpd. 1) | concentration showing maturation of TERC 3′ end processing by RACE ([4]; DC patient iPSCs) [nM] | minimal effective concentration [4] [µM] | minimal effective concentration [3] [µM]
1 |  |  |  | O=C(O)c1cc(Cl)ccc1Nc1c(S(=O)(=O)N2CCOCC2)cnc2ccc(Cl)cc12 [Compound 266A, 5-chloro-2-[(6-chloro-3-morpholinosulfonyl-4-quinolyl)amino]benzoic acid] | > 5 | 102 | 10 | 1-2 logs |  |  | 
2 |  |  |  | Cl.O=C(O)c1cc(Cl)ccc1Nc1c(-c2ncco2)cnc2ccc(Cl)cc12 [Compound 295A, 5-chloro-2-[(6-chloro-3-oxazol-2-yl-4-quinolyl)amino]benzoic acid] | > 5 | 318 | 1 |  | 1 |  | 
3 |  |  |  | O=C(O)c1cc(F)ccc1Nc1c(C2CCOCC2)cnc2ccc(Cl)cc12 [Compound 303A, 2-[(6-chloro-3-tetrahydropyran-4-yl-4-quinolyl)amino]-5-fluoro-benzoic acid] | > 5 | 229 |  |  |  |  | 
4 |  |  |  | Cc1ccc(Nc2c(C3CCOCC3)cnc3ccc(Cl)cc23)c(C(=O)O)c1 [Compound 305A, 2-[(6-chloro-3-tetrahydropyran-4-yl-4-quinolyl)amino]-5-methyl-benzoic acid] | > 5 | 66 |  |  |  |  | 
5 |  |  |  | Cc1ccc(Nc2c(C3=CCOCC3)cnc3ccc(Cl)cc23)c(C(=O)O)c1 [Compound 306A, 2-[[6-chloro-3-(3,6-dihydro-2H-pyran-4-yl)-4-quinolyl]amino]-5-methyl-benzoic acid] | > 5 | 1050 |  |  |  |  | 
6 |  |  |  | COc1ccc(Nc2c(C3CCOCC3)cnc3ccc(Cl)cc23)c(C(=O)O)c1 [Compound 307A, 2-[(6-chloro-3-tetrahydropyran-4-yl-4-quinolyl)amino]-5-methoxy-benzoic acid] | > 5 | 1320 |  |  |  |  | 
7 | > 5 | > 5 |  | O=C1CCN(c2cnc3ccc(Cl)cc3c2Nc2ccc(Cl)cc2C(=O)O)CC1 [Compound 395A, 5-chloro-2-[[6-chloro-3-(4-oxo-1-piperidyl)-4-quinolyl]amino]benzoic acid] | > 5 |  |  |  |  | 1 | < 0.001
8 | > 5 | > 5 |  | O=C(O)c1cc(Cl)ccc1Nc1c(N2CCC(O)CC2)cnc2ccc(Cl)cc12 [Compound 399A, 5-chloro-2-[[6-chloro-3-(4-hydroxy-1-piperidyl)-4-quinolyl]amino]benzoic acid] | > 5 |  |  |  |  | < 0.001 | < 0.001
9 | > 5 | > 5 | > 5 | Cc1cc2ncc(S(=O)(=O)N3CCSCC3)c(Nc3ccc(Cl)cc3C(=O)O)c2cc1Cl [Compound 411A, 5-chloro-2-[(6-chloro-7-methyl-3-thiomorpholinosulfonyl-4-quinolyl)amino]benzoic acid] |  |  |  |  |  | < 0.001 | < 0.001
10 | 1 to 5 | > 5 | > 5 | O=C(O)c1cc(Cl)ccc1Nc1c(S(=O)(=O)N2CCSCC2)cnc2cc(C(F)(F)F)c(Cl)cc12 [Compound 413A, 5-chloro-2-[[6-chloro-3-thiomorpholinosulfonyl-7-(trifluoromethyl)-4-quinolyl]amino]benzoic acid] |  |  |  |  |  | < 0.001 | < 0.001
11 | > 5 | > 5 | > 5 | O=C(O)c1cc(Cl)ccc1Nc1c(S(=O)(=O)N2CCSCC2)cnc2cc(Cl)c(Cl)cc12 [Compound 414A, 5-chloro-2-[(6,7-dichloro-3-thiomorpholinosulfonyl-4-quinolyl)amino]benzoic acid] |  |  |  |  |  | < 0.001 | < 0.001
12 | > 5 | > 5 | > 5 | O=C(O)c1cc(Cl)ccc1Nc1c(S(=O)(=O)N2CCSCC2)cnc2cc(Br)c(Cl)cc12 [Compound 416A, 2-[(7-bromo-6-chloro-3-thiomorpholinosulfonyl-4-quinolyl)amino]-5-chloro-benzoic acid] |  |  |  |  |  | < 0.001 | < 0.001
13 | > 5 | > 5 |  | O=C(O)c1cc(Cl)ccc1Nc1c(S(=O)(=O)N2CCSCC2)cnc2c(C(F)(F)F)cc(Cl)cc12 [Compound 419A, 5-chloro-2-[[6-chloro-3-thiomorpholinosulfonyl-8-(trifluoromethyl)-4-quinolyl]amino]benzoic acid] | < 1 |  |  |  |  | < 0.001 | < 0.001
14 | > 5 | > 5 | > 5 | O=C(O)c1cc(Cl)ccc1Nc1c(S(=O)(=O)N2CCSCC2)cnc2c(Br)cc(Cl)cc12 [Compound 422A, 2-[(8-bromo-6-chloro-3-thiomorpholinosulfonyl-4-quinolyl)amino]-5-chloro-benzoic acid] |  |  |  |  |  | < 0.001 | < 0.001
15 | > 5 | > 5 |  | Cc1nc2ccc(Cl)cc2c(Nc2ccc(Cl)cc2C(=O)O)c1S(=O)(=O)N1CCSCC1 [Compound 423A, 5-chloro-2-[(6-chloro-2-methyl-3-thiomorpholinosulfonyl-4-quinolyl)amino]benzoic acid] | > 5 |  |  |  |  | < 0.001 | < 0.001

Row | SMILES | ΔTm at 1 µM [1] [°C] | ΔTm at 10 µM [1, 5] [°C] | ΔTm at 10 µM [1, 6] [°C] | ΔTm at 100 µM ([1]; shift vs DMSO control) [°C] | IC50 [2] [nM] | concentration at which telomere elongation was observed [3] [nM] | activity in DC patient iPSCs (TERC maturation) relative to cmpd. 1 ([4]; DC patient iPSCs, higher / more potent than cmpd. 1) | concentration showing maturation of TERC 3′ end processing by RACE ([4]; DC patient iPSCs) [nM] | minimal effective concentration [4] [µM] | minimal effective concentration [3] [µM]
16 | O=C(O)c1cc(Cl)ccc1Nc1c(C2CCSCC2)cnc2ccc(Cl)cc12 [Compound 341A, 5-chloro-2-[(6-chloro-3-tetrahydrothiopyran-4-yl-4-quinolyl)amino]benzoic acid] | > 5 | > 5 | > 5 |  | 84 |  |  |  | 0.001 to 1 | 
17 | O=C(O)c1cc(Cl)ccc1Nc1c(N2CCSCC2)cnc2ccc(Cl)cc12 [Compound 346A, 5-chloro-2-[(6-chloro-3-thiomorpholino-4-quinolyl)amino]benzoic acid] | 1 to 5 | > 5 |  | > 5 | 88 |  |  |  | 0.001 to 1 | 
18 | O=C(O)c1cc(Cl)ccc1Nc1c(-c2cn[nH]c2)cnc2ccc(Cl)cc12 [Compound 354A, 5-chloro-2-[[6-chloro-3-(1H-pyrazol-4-yl)-4-quinolyl]amino]benzoic acid] | 1 to 5 | > 5 | > 5 |  | 3340 |  |  |  | 1 | 
19 | CN1CC=C(c2cnc3ccc(Cl)cc3c2Nc2ccc(Cl)cc2C(=O)O)CC1 [Compound 367A, 5-chloro-2-[[6-chloro-3-(1-methyl-3,6-dihydro-2H-pyridin-4-yl)-4-quinolyl]amino]benzoic acid] | > 5 | > 5 |  | > 5 | 902 |  |  |  | 1 | 
20 | O=C(O)c1cc(Cl)ccc1Nc1c(N2CCC(=NO)CC2)cnc2ccc(Cl)cc12 [Compound 376A, 5-chloro-2-[[6-chloro-3-(4-hydroxyimino-1-piperidyl)-4-quinolyl]amino]benzoic acid] | > 5 | > 5 |  | > 5 | 101 |  |  |  | 1 | 
